From patent US20220017512A1 (SHANGHAI ENNOVABIO PHARMACEUTICALS CO., LTD., priority 2018, published 2022)

Experiments:
Format in all cases: biochemical
Recombinant human TRKA = molecular target: T1, Recombinant human TRKA (Homo sapiens, UniProt P04629); experiment: In vitro activity test on TRKA kinase (HTRF KinEASE TK); conditions: 14.68 μM ATP, 40 min
T1 construct: purchased Carna Biosciences
In short: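 Reaction: 0.2 ng/μL TRKA, 1 μM biotinylated TK substrate, 14.68 μM ATP, 5 mM MgCl2, 1 mM DTT, 1% DMSO, 40 min at room temperature. Compounds tested at 1 μM to 0.05 nM (10-point, 3-fold, duplicate). HTRF 665/620 ratio converted to % inhibition versus no-compound control; IC50 by 4-parameter fit.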

Recombinant human TRKB = molecular target: T2, Recombinant human TRKB (Homo sapiens, UniProt Q16620); experiment: In vitro activity test on TRKB kinase (HTRF KinEASE TK); conditions: 4.77 μM ATP, 50 min
T2 construct: purchased Carna Biosciences
In short: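 Recombinant human TRKB (0.037 ng/μL) phosphorylated 1 μM biotinylated TK substrate at 4.77 μM ATP, 5 mM MgCl2, 1% DMSO, 50 min at room temperature; compounds 1 μM–0.05 nM. HTRF KinEASE detection overnight; 665/620 ratio converted to inhibition and IC50 from 4-parameter fit.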

Recombinant human TRKC = molecular target: T3, Recombinant human TRKC (Homo sapiens, UniProt Q16288); experiment: In vitro activity test on TRKC kinase (HTRF KinEASE TK); conditions: 25.64 μM ATP, 40 min
T3 construct: purchased Carna Biosciences
In short: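 Recombinant human TRKC (0.037 ng/μL) with 1 μM biotinylated TK substrate, 25.64 μM ATP, 5 mM MgCl2, 1 mM DTT, 40 min at room temperature; compound 1 μM to 0.05 nM, 1% DMSO. HTRF 665/620 ratio after overnight detection; IC50 from 4-parameter fit.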

[1] = molecular target: T4, recombinant human TRKA (G595R) (Homo sapiens, UniProt P04629, G595R); experiment: In vitro activity test on mutant TRKA (G595R) (HTRF KinEASE TK); conditions: 4.5 μM ATP, 30 min
T4 construct: purchased SignalChem
In short: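 HTRF KinEASE TK format: 0.12 ng/μL recombinant TRKA (G595R), 1 μM biotinylated TK substrate, 4.5 μM ATP, 5 mM MgCl2, 1 mM DTT, 1% DMSO, 30 min at room temperature; detection overnight. IC50 from 10-point 4-fold series (1 μM to 0.004 nM, duplicates), 665/620 ratio, 4-parameter fit.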

[2] = molecular target: T5, recombinant human TRKA (G667C) (Homo sapiens, UniProt P04629, G667C); experiment: In vitro activity test on mutant TRKA (G667C) (HTRF KinEASE TK); conditions: 5.5 μM ATP, 30 min
T5 construct: purchased SignalChem
In short: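 HTRF KinEASE TK format with recombinant human TRKA G667C (0.026 ng/μL), 1 μM biotinylated TK substrate, 5.5 […] ATP, 5 mM MgCl2, 1 mM DTT, 1% DMSO; 30 min at room temperature. Detection overnight; 665/620 ratio gives % inhibition, IC50 from 4-parameter fit over 10 doses (1 μM–0.004 nM).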

T5 sequence (P04629 33-796 G667C): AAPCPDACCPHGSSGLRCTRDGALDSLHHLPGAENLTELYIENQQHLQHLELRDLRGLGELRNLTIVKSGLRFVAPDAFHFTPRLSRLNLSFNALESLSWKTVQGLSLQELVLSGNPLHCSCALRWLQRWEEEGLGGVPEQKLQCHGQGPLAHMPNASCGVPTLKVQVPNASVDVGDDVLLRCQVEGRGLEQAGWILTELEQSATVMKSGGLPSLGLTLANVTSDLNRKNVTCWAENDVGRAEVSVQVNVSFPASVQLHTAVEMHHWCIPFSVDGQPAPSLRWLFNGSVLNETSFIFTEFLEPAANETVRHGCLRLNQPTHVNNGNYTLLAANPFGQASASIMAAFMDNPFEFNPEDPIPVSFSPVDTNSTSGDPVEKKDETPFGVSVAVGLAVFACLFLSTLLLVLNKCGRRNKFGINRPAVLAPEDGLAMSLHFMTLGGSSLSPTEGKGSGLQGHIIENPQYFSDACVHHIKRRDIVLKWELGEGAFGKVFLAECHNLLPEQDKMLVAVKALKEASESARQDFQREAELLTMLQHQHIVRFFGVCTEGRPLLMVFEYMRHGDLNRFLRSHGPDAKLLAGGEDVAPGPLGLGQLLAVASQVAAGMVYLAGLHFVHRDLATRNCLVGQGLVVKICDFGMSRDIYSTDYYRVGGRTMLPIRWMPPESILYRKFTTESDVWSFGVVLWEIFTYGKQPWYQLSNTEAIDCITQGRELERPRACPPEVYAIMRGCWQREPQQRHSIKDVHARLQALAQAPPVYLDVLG
T1 sequence (P04629 33-796): as the sequence (P04629 33-796 G667C) above, with C635G counted along it
T3 sequence (Q16288 32-839): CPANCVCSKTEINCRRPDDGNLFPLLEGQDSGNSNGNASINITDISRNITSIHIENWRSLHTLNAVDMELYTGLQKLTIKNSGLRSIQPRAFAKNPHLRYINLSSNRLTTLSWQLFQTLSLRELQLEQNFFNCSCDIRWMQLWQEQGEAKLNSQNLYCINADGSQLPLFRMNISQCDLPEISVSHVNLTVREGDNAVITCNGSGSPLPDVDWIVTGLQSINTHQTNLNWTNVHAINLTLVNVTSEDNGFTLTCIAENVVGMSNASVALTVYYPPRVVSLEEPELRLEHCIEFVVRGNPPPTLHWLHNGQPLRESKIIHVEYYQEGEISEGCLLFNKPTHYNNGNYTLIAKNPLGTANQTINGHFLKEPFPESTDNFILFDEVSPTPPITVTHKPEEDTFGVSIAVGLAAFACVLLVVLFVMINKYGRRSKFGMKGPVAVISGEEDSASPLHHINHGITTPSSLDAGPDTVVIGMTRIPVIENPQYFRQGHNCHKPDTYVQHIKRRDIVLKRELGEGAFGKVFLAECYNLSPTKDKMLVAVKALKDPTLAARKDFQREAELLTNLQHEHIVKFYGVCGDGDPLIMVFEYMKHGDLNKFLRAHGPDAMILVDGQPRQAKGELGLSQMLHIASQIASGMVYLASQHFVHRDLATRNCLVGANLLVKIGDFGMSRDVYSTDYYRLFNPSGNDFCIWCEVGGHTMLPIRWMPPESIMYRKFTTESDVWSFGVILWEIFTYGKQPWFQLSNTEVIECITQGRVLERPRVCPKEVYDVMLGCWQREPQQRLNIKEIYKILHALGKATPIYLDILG
T4 sequence (P04629 33-796 G595R): as the sequence (P04629 33-796 G667C) above, with G563R, C635G counted along it
T2 sequence (Q16620 32-822): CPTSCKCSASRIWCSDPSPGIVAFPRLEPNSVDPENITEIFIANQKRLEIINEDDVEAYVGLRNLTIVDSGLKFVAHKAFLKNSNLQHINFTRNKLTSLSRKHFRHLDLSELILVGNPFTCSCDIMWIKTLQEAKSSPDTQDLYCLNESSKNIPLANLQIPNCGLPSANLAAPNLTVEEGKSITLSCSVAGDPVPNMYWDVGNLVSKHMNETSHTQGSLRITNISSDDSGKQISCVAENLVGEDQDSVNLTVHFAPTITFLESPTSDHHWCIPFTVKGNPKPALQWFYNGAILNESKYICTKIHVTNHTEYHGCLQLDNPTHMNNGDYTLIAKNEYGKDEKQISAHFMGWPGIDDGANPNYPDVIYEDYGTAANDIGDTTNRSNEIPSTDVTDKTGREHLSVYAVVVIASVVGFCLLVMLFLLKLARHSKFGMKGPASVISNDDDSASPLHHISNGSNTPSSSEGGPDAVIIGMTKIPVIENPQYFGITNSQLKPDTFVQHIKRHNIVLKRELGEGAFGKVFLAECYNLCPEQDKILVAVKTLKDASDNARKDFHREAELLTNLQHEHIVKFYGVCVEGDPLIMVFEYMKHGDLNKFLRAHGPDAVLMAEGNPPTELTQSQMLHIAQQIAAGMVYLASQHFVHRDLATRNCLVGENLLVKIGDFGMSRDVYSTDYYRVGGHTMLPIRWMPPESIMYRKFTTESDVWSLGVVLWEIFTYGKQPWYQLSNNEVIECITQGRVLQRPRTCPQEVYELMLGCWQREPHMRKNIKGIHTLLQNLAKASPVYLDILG

SMILES	IC50 (Recombinant human TRKA) [nM]	IC50 (Recombinant human TRKB) [nM]	IC50 (Recombinant human TRKC) [nM]	IC50 [1] [nM]	IC50 [2] [nM]
Fc1ccc(F)c([C@H]2CCCN2c2ccc3ncc(F)c(-c4cnn(C5CCNCC5)c4)c3n2)c1 [Example 21]	< 1	< 1	< 1	< 1	< 10
Fc1ccc(F)c([C@H]2C[C@H](F)CN2c2ccc3ncc(Cl)c(-c4cnn(C5CNC5)c4)c3n2)c1 [Example 22, 8-(1-(azetidine-3-yl)-1H-pyrazol-4-yl)-7-chloro-2-((2R,4S)-2-(2,5-difluorophenyl)-4-fluoropyrrolidin-1-yl)-1,5-naphthyridine]	< 1	< 1	< 1	< 1	< 1
Fc1ccc(F)c([C@H]2C[C@H](F)CN2c2ccc3ncc(Cl)c(-c4nnc(C5CCNCC5)o4)c3n2)c1 [Example 42, 2-(3-Chloro-6-((2R,4S)-2-(2,5-difluorophenyl)-4-fluoropyrrolidin-1-yl)-1,5-naphthyridin-4-yl)-5-(piperidin-4-yl)-1,3,4-oxadiazole]	< 1	< 1	< 1	< 10	< 10
O[C@H]1CN=C(Nc2ccnc3ccc(N4C[C@@H](F)C[C@@H]4c4cc(F)ccc4F)nc23)OC1 [Example 99, (S)-2-((6-((2R,4S)-2-(2,5-difluorophenyl)-4-fluoropyrrolidin-1-yl)-1,5-naphthyridin-4-yl)amino)-5,6-dihydro-4H-1,3-oxazin-5-ol]	< 1	< 1	< 10	< 1	< 1
Fc1ccc(F)c([C@H]2CCCN2c2ccc3ncc(Cl)c(-c4cnn(C5CCNCC5)c4)c3n2)c1 [Example 24, (R)-7-chloro-2-(2-(2,5-difluorophenyl)pyrrolidin-1-yl)-8-(1-(piperidin-4-yl)-1H-pyrazol-4-yl)-1,5-naphthyridine]	< 1	< 1	< 10	< 1	< 10
Fc1ccc(F)c([C@H]2C[C@H](F)CN2c2ccc3ncc(Cl)c(-c4cn(C5CCNCC5)nn4)c3n2)c1 [Example 67, 7-chloro-2-((2R,4S)-2-(2,5-difluorophenyl)-4-fluoropyrrolidin-1-yl)-8-(1-(piperidin-4-yl)-2H-1,2,3-triazol-4-yl)-1,5-naphthyridine]	< 1	< 1	< 1	< 10	< 10
O[C@@H]1CN=C(Nc2ccnc3ccc(N4C[C@@H](F)C[C@@H]4c4cc(F)ccc4F)nc23)OC1 [Example 98, (R)-2-((6-((2R,4S)-2-(2,5-difluorophenyl)-4-fluoropyrrolidin-1-yl)-1,5-naphthyridin-4-yl)amino)-5,6-dihydro-4H-1,3-oxazin-5-ol]	< 1	< 1	< 1	< 1	< 1
Fc1ccc(F)c([C@H]2C[C@H](F)CN2c2ccc3ncc(Cl)c(-c4cnn(C5CCNCC5)n4)c3n2)c1 [Example 41, 7-chloro-2-((2R,4S)-2-(2,5-difluorophenyl)-4-fluoropyrrolidin-1-yl)-8-(2-(piperidin-4-yl)-2H-1,2,3-triazol-4-yl)-1,5-naphthyridine]	< 1	< 1	< 1	< 10	< 1

Other lines, results leading:

IC50 (Recombinant human TRKA) [nM]	IC50 (Recombinant human TRKB) [nM]	IC50 (Recombinant human TRKC) [nM]	IC50 [1] [nM]	IC50 [2] [nM]	SMILES
< 10	< 50	< 10	< 50	< 10	Fc1ccc(F)c([C@H]2C[C@H](F)CN2c2ccc3ncc(Cl)c(-c4cnc(N5CCOCC5)s4)c3n2)c1 [Example 61, 4-(5-(3-chloro-6-((2R,4S)-2-(2,5-difluorophenyl)-4-fluoropyrrolidin-1-yl)-1,5-naphthyridin-4-yl)thiazol-2-yl)morpholine]
< 1	< 10	< 1	< 1	< 10	Fc1ccc(F)c([C@H]2C[C@H](F)CN2c2ccc3ncc(Cl)c(-c4cnn([C@H]5CCNC5)c4)c3n2)c1 [Example 57, 7-chloro-2-((2R,4S)-2-(2,5-difluorophenyl)-4-fluoropyrrolidin-1-yl)-8-(1-((S)-pyrrolidin-3-yl)-1H-pyrazol-4-yl)-1,5-naphthyridine]
< 1	< 1	< 1	< 1	< 10	O=S(=O)(Nc1ccnc2ccc(N3C[C@@H](F)C[C@@H]3c3cc(F)ccc3F)nc12)N1CC[C@H](O)C1 [Example 69, (S)—N-(6-((2R,4S)-2-(2,5-difluorophenyl)-4-fluoropyrrolidin-1-yl)-1,5-naphthyridin-4-yl)-3-hydroxypyrrolidin-1-sulfonamide]
< 10	< 10	< 10	< 10	< 10	Fc1ccc(F)c([C@H]2C[C@H](F)CN2c2ccc3ncc(Cl)c(-c4cnn([C@@H]5CCCNC5)c4)c3n2)c1 [Example 54, 7-chloro-2-((2R,4S)-2-(2,5-difluorophenyl)-4-fluoropyrrolidin-1-yl)-8-(1-((R)-piperidin-3-yl)-1H-pyrazol-4-yl)-1,5-naphthyridine]
< 1	< 10	< 1	< 10	< 10	Fc1ccc(F)c([C@H]2C[C@H](F)CN2c2ccc3ncc(Cl)c(-c4cnn([C@@H]5CCNC5)c4)c3n2)c1 [Example 56, 7-chloro-2-((2R,4S)-2-(2,5-difluorophenyl)-4-fluoropyrrolidin-1-yl)-8-(1-((R)-pyrrolidin-3-yl)-1H-pyrazol-4-yl)-1,5-naphthyridine]
< 1	< 1	< 1	< 1	< 1	O=C(Nc1ccnc2ccc(N3C[C@@H](F)C[C@@H]3c3cc(F)ccc3F)nc12)N1CC[C@H](O)C1 [Example 26, (S)—N-(6-((2R,4S)-2-(2,5-difluorophenyl)-4-fluoropyrrolidin-1-yl)-1,5-naphthyridin-4-yl)-3-hydroxypyrrolidin-1-carboxamide]
< 1	< 10	< 10	< 50	< 50	COC1(C)CC(n2cc(-c3c(Cl)cnc4ccc(N5C[C@@H](F)C[C@@H]5c5cc(F)ccc5F)nc34)cn2)C1 (stereo partly drawn) [Example 38, 7-chloro-2-((2R,4S)-2-(2,5-difluorophenyl)-4-fluoropyrrolidin-1-yl)-8-(1-(3-methoxy-3-methylcyclobutyl)-1H-pyrazol-4-yl)-1,5-naphthyridine]
< 1	< 1	< 1	< 1	< 50	O=C(Nc1ccnc2ccc(N3CCC[C@@H]3c3cc(F)ccc3F)nc12)N1CC[C@H](O)C1 [Example 27, (S)—N-(6-((R)-2-(2,5-difluorophenyl)pyrrolidin-1-yl)-1,5-naphthyridin-4-yl)-3-hydroxypyrrolidin-1-carboxamide]
< 1	< 1	< 1	< 1	< 10	O[C@H]1CCN(C(=S)Nc2ccnc3ccc(N4C[C@@H](F)C[C@@H]4c4cc(F)ccc4F)nc23)C1 [Example 79, (S)-N-(6-((2R,4S)-2-(2,5-difluorophenyl)-4-fluoropyrrolidin-1-yl)-1,5-naphthyridin-4-yl)-3-hydroxypyrrolidine-1-methylthioamide]
< 10	< 10	< 10	< 10	< 10	Fc1ccc(F)c([C@H]2CCCN2c2ccc3ncc(F)c(-c4cnn(C5CNC5)c4)c3n2)c1 [Example 28, (R)-8-(1-(azetidin-3-yl)-1H-pyrazol-4-yl)-2-(2-(2,5-difluorophenyl)pyrrolidin-1-yl)-7-fluoro-1,5-naphthyridine]
< 1	< 10	< 10	< 10	< 50	CC1(C)CC(n2cc(-c3ccnc4ccc(N5CCC[C@@H]5c5cc(F)ccc5F)nc34)cn2)CCN1 (stereo partly drawn) [Example 17, 2-((R)-2-(2,5-difluorophenyl)pyrrolidin-1-yl)-8-(1-(2,2-dimethylpiperidin-4-yl)-1H-pyrazol-4-yl)-1,5-naphthyridine]
